Data as given in US5302514A, “Maltooligoside derivative, reagent for determining α-amylase activity containing the same as effective ingredient and a process for determining the α-amylase activity using same” (Kikkoman Corporation, priority 1991, dated 1994).

What was measured:
[1] = target: T1, amylase derived from human pancreatic juice (human P type α-amylase) (Homo sapiens, UniProt P04746); assay: Km value, P type α-amylase; assay type: biochemical; conditions: pH 7.0, 37° C., Lineweaver-Burk
T1 sequence (P04746 16-511): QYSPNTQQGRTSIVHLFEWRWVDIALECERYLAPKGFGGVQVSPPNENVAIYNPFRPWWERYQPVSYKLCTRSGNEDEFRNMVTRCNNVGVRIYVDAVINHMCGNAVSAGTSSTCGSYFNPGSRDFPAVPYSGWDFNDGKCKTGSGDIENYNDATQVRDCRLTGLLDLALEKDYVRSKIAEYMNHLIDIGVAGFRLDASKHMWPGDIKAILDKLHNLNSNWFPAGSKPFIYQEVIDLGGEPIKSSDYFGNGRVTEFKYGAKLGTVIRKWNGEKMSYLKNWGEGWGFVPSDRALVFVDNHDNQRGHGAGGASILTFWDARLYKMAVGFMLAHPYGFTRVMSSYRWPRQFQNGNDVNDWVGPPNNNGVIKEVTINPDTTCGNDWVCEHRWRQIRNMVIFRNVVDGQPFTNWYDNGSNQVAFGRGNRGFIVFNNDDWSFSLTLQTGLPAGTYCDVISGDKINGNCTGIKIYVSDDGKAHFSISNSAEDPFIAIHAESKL
Experimental: Km values, hydrolysis rate, water solubility and the patterns of action in the hydrolysis of the present substrates 2-chloro-4-nitrophenyl 5^5 -eno-4^5 -O-mesyl-β-D-maltopentaoside (EMG5CNP) and 2-chloro-4-nitrophenyl 6^5 -azido-6^5 -deoxy- β-D-maltopentaoside (ADG5CNP) obtained in Example were examined in accordance with the following methods.
Substrate solutions were prepared by dissolving in a 50 mM phosphate buffer (pH=7.0) containing 40 mM NaCl and 2 mM MgCl2 a substrate to 0.16, 0.32, 0.48, 0.64, 0.80 and 0.96 mM, respectively.
The Km value of each substrate solution was obtained by measuring the hydrolysis rate of the substrate in accordance with the same procedure as in the measurement of hydrolysis rate described below and roughly calculating the Lineweaver-Burk's reciprocal plot (see "Tanpaku-Kohso no Jikken-hou", ed. Takeichi Horio & Jinpei Yamashita, Nanko-do, 1981).
Each substrate was dissolved in a 50 mM phosphate buffer (pH=7.0) containing 40 mM NaCl and 2 mM MgCl2 to make three substrate solutions in a concentration of 0.8-1.6 times and three substrate solutions in a concentration of 1.6-3.2 times per the roughly calculated Km value in the aforementioned paragraph (ii).
The Km value was calculated in accordance with the same procedure as in the aforementioned paragraph (ii).
(§1) P: amylase derived from human pancreatic juice, […]

Solubility in water = assay type: physicochemical; conditions: 20 g of substrate added to 100 ml of water
Experimental: To 100 ml of water was added 20 g of a substrate, and the dissolution state was observed.

[2] = target: T1, amylase derived from human pancreatic juice (human P type α-amylase); assay: Hydrolysis rate, P type α-amylase; assay type: biochemical; conditions: relative to hydrolysis rate of 3 mM G5CNP defined as 10, substrate 7-9 times the Km
Experimental: The coupled enzyme solution was prepared in the same manner as in the step (2) of Example 5.
Commercially available human P type and S type α-amylase solutions having a concentration of ca. 500 IU/l were prepared in the same manner as in the step (3) of Example 5.
With 250 μl of the α-amylase solution prepared in (iii) was mixed 1.0 ml of the coupled enzyme. The mixture was heated at 37° C. for 1 minute, and 2.0 ml of the substrate solution was added with stirring to the mixture. The variation of absorbance at 400 nm was measured for 2 minutes after heating the mixture at 37° C. for 2 minutes. The hydrolysis rate of each substrate, namely the variable absorbance per unit time was expressed with the relative values to the hydrolysis rate of 3 mM G5CNP (the reference substrate) which is defined as 10.
as §1

[3] = tested on: coupled enzyme (α-glucosidase derived from yeast and β-glucosidase derived from almond); assay: Coupled enzyme resistance test; assay type: biochemical; conditions: 37° C., pH 7.0, FIG. 3 / FIG. 4; for hydrolysis by the coupled enzyme (in words): 3.0 mM substrate solution, α-glucosidase 1053 units/ml, β-glucosidase 15.5 units/ml, 400 nm for 5 minutes; for stability in a measuring system (in words): coupled enzyme system
Experimental: 2-chloro-4-nitrophenyl 5^5 -eno-4^5 -O-mesyl-β-D-maltopentaoside (molecular weight: 1044; referred to hereinafter as substrate of the present invention) obtained in Example 1 was dissolved in a 50 mM phosphate buffer (pH=7.0) containing 40 mM NaCl and 2 mM MgCl2 to a concentration of 3.0 mM.
2-chloro-4-nitrophenyl β-D-maltopentaoside (molecular weight: 984; referred to hereinafter as reference substrate) obtained in the conventional method was dissolved in a 50 mM phosphate buffer (pH=7.0) containing 40 mM NaCl and 2 mM MgCl2 to a concentation of 3.0 mM.
Coupled enzyme solution was prepared by dissolving a commercially available α-glucosidase derived from yeast and a commercially available β-glucosidase derived from almond in a 50 mM phosphate buffer (pH=7.0) containing 40 mM NaCl and 2 mM MgCl2 to a concentration of 1053 units/ml and 15.5 units/ml, respectively. As the commercially available α- and β-glucosidases, those available from Toyobo Co., Ltd. were used.
After 1.0 ml of a coupled enzyme solution was heated at 37° C. for 5 minutes, it was mixed sufficiently with 2.0 ml of the substrate solution of the present invention or the reference substrate solution and heated at 37° C. for 3 minutes. Then, variations of the absorbance at a wavelength of 400 nm were measured for 5 minutes.
The test was carried out in the same manner as in Example 9 except that 2-chloro-4-nitrophenyl 6^5 -azido-6^5 -deoxy-β-D-maltopentaoside (molecular weight: 1009; referred to hereinafter as the substrate of the present invention) obtained in Example 3 was employed as the substrate (a). In FIG. 4, marks Δ show the plottings of the substrate solution (a) and the marks .quadrature. show the plottings of the substrate solution (b).

Km [1] [µM] | Solubility in water (Solubility in water) | Hydrolysis rate [2] | hydrolysis by the coupled enzyme (in words) [3] | stability in a measuring system (in words) [3] | SMILES
170 | Good | 10 | not hydrolyzed | stable | [N-]=[N+]=NC[C@H]1O[C@H](O[C@H]2[C@H](O)[C@@H](O)[C@@H](O[C@H]3[C@H](O)[C@@H](O)[C@@H](O[C@H]4[C@H](O)[C@@H](O)[C@@H](O[C@H]5[C@H](O)[C@@H](O)[C@H](Oc6ccc([N+](=O)[O-])cc6Cl)O[C@@H]5CO)O[C@@H]4CO)O[C@@H]3CO)O[C@@H]2CO)[C@H](O)[C@@H](O)[C@@H]1O [ADG5CNP, 2-chloro-4-nitrophenyl 6^5-azido-6^5-deoxy-β-D-maltopentaoside]
130 | Good | 10 | not hydrolyzed | stable | C=C1O[C@H](O[C@H]2[C@H](O)[C@@H](O)[C@@H](O[C@H]3[C@H](O)[C@@H](O)[C@@H](O[C@H]4[C@H](O)[C@@H](O)[C@@H](O[C@H]5[C@H](O)[C@@H](O)[C@H](Oc6ccc([N+](=O)[O-])cc6Cl)O[C@@H]5CO)O[C@@H]4CO)O[C@@H]3CO)O[C@@H]2CO)[C@H](O)[C@@H](O)[C@@H]1OS(C)(=O)=O [EMG5CNP, 2-chloro-4-nitrophenyl 5^5-eno-4^5 -O-mesyl-β-D-maltopentaoside]
